Results published in PMC3498381, “Isolated Toll-like Receptor Transmembrane Domains Are Capable of Oligomerization” (PLoS ONE, 2012).
No end group written: not given here.

Assays:
[1] = tested on: GpA TMD (functional ToxR chimera); assay: Dominant-negative (heterotypic) ToxR assay, GpA as dominant phenotype; type: cell-based; conditions: Miller units normalized to poly-Leu* = 1 and corrected for expression, lower = stronger interaction, N in table
Text: (§1) Next, we investigated heterotypic interactions of the TLRs. We specifically studied TLR2, TLR1, and TLR6 because they are cell surface expressed receptors known to form functional heterodimers. To determine the ability of these three cell surface TLRs to have heterotypic interactions within its family, we studied the ability of the TLR1, TLR2, and TLR6 TMDs to interact with the TLR receptors also expressed at the cell surface; namely, TLR1, TLR2, TLR4, TLR5, TLR6, and TLR10. We monitored these interactions using a dominant-negative ToxR assay (Fig. S1B) which works by having a second TMD expressed with a non-functional ToxR* intracellular domain. This ToxR* domain is incapable of binding the ctx promoter making any interactions with this second expressed TMD unable to produce the reporter enzyme. As such, any interaction between the functional ToxR and non-functional ToxR* TMDs will result in a reduction in signal output.
(§2) Figure 3 Cell- Surface Toll-like Recptor Heterotypic Interactions. (A) A dominant-negative ToxR assay was used to study heterotypic interactions of the cell-surface TLRs. Two TLR TMDs were encoded in the FHK12 E.coli reporter strain, one with a functional ToxR domain (dominant phenotype) and one with a nonfunctional ToxR* domain (negative phenotype). Interaction between the two different TMDs leads to a reduction in signal from that seen for homotypic interactions. The TMDs for GpA, TLR1, TLR2, and TLR6 were used with the functional ToxR domain while TMDs for poly-Leucine, TMD5, integrin αIIb, TLR1, TLR2, TLR4, TLR5, TLR6, and TLR10 were used with the nonfunctional ToxR* domain. Interactions were most prominent for the TLRs known to have heterotypic interactions – TLR2-TLR1 and TLR2-TLR6. […] We also saw interaction with the same TMD further validating the homotypic interactions. […] Each dominant phenotype was done in 3 technical replicates with each negative phenotype and >6 measurements made for each replicate. Error bars depict the standard error of the mean (n- Tables S3, S5, S7, S9). Western blots staining for MBP were performed to monitor expression levels of the constructs with the upper band being functional ToxR chimeras and the lower band being nonfunctional ToxR* chimeras – (B) GpA, (C) TLR1, (D) TLR2, and (E) TLR6. Significant differences for the same dominant phenotype were determined by use of the Tukey-Kramer test.
(§3) For heterotypic interactions one plasmid containing a functional ToxR domain (200 ng) and a second plasmid containing a non-functional ToxR* domain (200 ng) were co-transformed into chemically competent FHK12 E. coli (400 µL) by incubating on ice for 30 min, heat shock at 42°C for 90 s, incubation on ice for 2 min, and addition of SOC media (1600 µL) followed by incubation with shaking for 1 h at 37°C. This transformation mixture (50 µL) was then used to spread LB-agar plates containing cholaramphenicol (30 µg/mL), kanamycin (33 µg/mL), and ampicillin (100 µg/mL) and grown overnight at 37°C. Single colonies were selected from the plates and grown in 5 mL LB media containing cholaramphenicol (30 µg/mL), kanamycin (33 µg/mL), ampicillin (100 µg/mL), and arabinose (0.0025%) overnight (16–20 h) with shaking at 37°C. Analysis of activity was monitored as described in homotypic ToxR assays. Western blotting was done in the same manner as the homotypic ToxR assay with one band appearing for the functional ToxR construct and a second band for the nonfunctional ToxR* construct. Data were normalized to poly-Leu* Miller Units and corrected for varying protein expression levels using ImageJ (NIH) as previously reported.

[2] = tested on: TLR1 TMD (functional ToxR chimera); assay: Dominant-negative (heterotypic) ToxR assay, TLR1 as dominant phenotype; type: cell-based; conditions: Miller units normalized to poly-Leu* = 1 and corrected for expression, lower = stronger interaction, N in table
Text: as §1, §2, §3

[3] = tested on: TLR6 TMD (functional ToxR chimera); assay: Dominant-negative (heterotypic) ToxR assay, TLR6 as dominant phenotype; type: cell-based, E. coli; conditions: Miller units normalized to poly-Leu* = 1 and corrected for expression, lower = stronger interaction, N in table
Text: as §1, §2, §3

[4] = tested on: TLR2 TMD (functional ToxR chimera); assay: Dominant-negative (heterotypic) ToxR assay, TLR2 as dominant phenotype; type: cell-based; conditions: Miller units normalized to poly-Leu* = 1 and corrected for expression, lower = stronger interaction, N in table
Text: as §1, §2, §3

[5] = tested on: homotypic TMD-TMD interaction (ToxR / ctx promoter / β-galactosidase reporter in FHK12 E. coli); assay: Homotypic ToxR reporter assay (β-galactosidase); type: cell-based; conditions: for Mean homotypic TMD interaction (ToxR): β-galactosidase Miller units normalized to GpA signal and expression levels, FHK12 E. coli, 3 replicates with >6 measurements each, N in table
Method: . Various plasmid constructs for this assay make it possible to monitor both homotypic and heterotypic interactions that are driven by TMD-TMD association (Fig. S1).
We first investigated homotypic interactions because the majority of the TLR family members function as homodimers. […] This ΔTM construct consists of the same maltose binding protein and ToxR domain, but lacks a TMD for proper membrane insertion (Fig. S2). Statistical analysis using the Tukey-Kramer test was performed to analyze any significant differences between all possible pairs of average interaction potentials (Table S2). […] Among the TLRs, no discernable differences in grouping based on statistical analysis at p = 0.05 were indicated as all receptors belonged to multiple groups, except for TLR1, which with the lowest interaction potential among the family of receptors only existed in one group (Table S1).
Figure 2 Toll-like Receptor Transmembrane Domain Homotypic Interactions. (A) The ToxR assay was used to study homotypic interactions of the TLR TMDs. A chimeric protein expressing the TMD of interest was monitored through β-galactosidase activity. In all cases, we saw that the TLRs have interaction potential solely from TMD-TMD interactions. Each TLR TMD interaction measurement analysis was performed on 3 technical replicates with >6 measurements for each replicate. Error bars depict the standard error of the mean (n – Table S1). Western blots staining for MBP were performed to monitor expression levels of the constructs – (B) chimeric maltose binding protein expression, (C) endogenous maltose binding protein expression. All samples were normalized to the GpA signal and expression levels.
Briefly, the ToxR plasmids containing the TMD of interest (200 ng) were transformed into chemically competent FHK12 E. coli (200 µL) by incubating on ice for 30 min, heat shock at 42°C for 90 s, incubation on ice for 2 min, and addition of SOC media (800 µL) followed by incubation with shaking for 1 h at 37°C. This transformation mixture (50 µL) was then spread on LB agar plates containing cholaramphenicol (30 µg/mL) and ampicillin (100 µg/mL) and grown overnight at 37°C. Single colonies were selected from the plates in triplicate and added to 5 mL of LB media containing cholaramphenicol (30 µg/mL), ampicillin (100 µg/mL), and arabinose (0.0025%). These cultures were incubated overnight (16–20 h) with shaking at 37°C. The β-galactosidase activity was monitored using a Beckman Coulter DTX 880 plate-reader. First 5 µL of each culture was plated >6 times in a clear 96-well flat bottom culture plate (Sarstedt) containing 100 µL of Z-buffer/chloroform (1% β-mercaptoethanol, 10% chloroform, 89% Z buffer: […], 10 mM potassium chloride, 1 mM magnesium sulfate, pH 7.0). The cell densities of each well were recorded by measuring the OD595. Bacteria were lysed by the addition of 50 µL Z-buffer/SDS (1.6% sodium dodecyl sulfate w/v in Z-buffer) and shaking at 28°C for 10 min. Enzymatic activity was measured by adding 50 µL of Z-buffer/ortho-Nitrophenyl-β-[…] (ONPG) (0.4% ONPG w/v in Z-buffer) and monitoring the reaction at 405 nm for a period of 20 min at 30 s intervals. Miller units were calculated using the equation: [drawing 1]
Western blotting was performed with antiserum recognizing the maltose-binding protein moiety of the constructs (Abcam). Data were normalized to GpA Miller Units and protein expression levels using ImageJ (NIH) as reported previously.

In the case of “GNRASWQLLAFFLAFFLDLILLIIALYLGSLIN [TMD5*, TMD5 of latent membrane protein 1 fused to nonfunctional ToxR* domain, unrelated receptor, reference compound]”, the “Mean GpA-TMD* heterotypic interaction (ToxR signal)” value [1] is reported as 1.1703, the “Mean TLR1-TMD* heterotypic interaction (ToxR signal)” value [2] is reported as 1.0921 and the “Mean TLR6-TMD* heterotypic interaction (ToxR signal)” value [3] is reported as 1.1235. The “Mean TLR2-TMD* heterotypic interaction (ToxR signal)” value [4] was 1.1904.
For “GNRASLFFMINTSILLIFIFIVLLIHFGSLIN [TLR3 TMD]”, the “Mean homotypic TMD interaction (ToxR)” value [5] was 0.8032.
“GNRASFALSLL A V A L G L G VPMLHHLGSLIN [TLR9 TMD]” was tested, and the “Mean homotypic TMD interaction (ToxR)” value [5] was 0.7992.
With “TLR2 G593V (GNRASALVSVMCCALFLLILLTGVLCGSLIN; cysteine pairing not given here; also: fused to maltose-binding protein and ToxR activation domain, ends not given here)” the “Effect of TLR2 point mutation on homotypic interaction” value ([5]; homotypic ToxR assay, compared with wild type TLR2 TMD (Fig. 7A)) was “no mutation demonstrated significant difference from the wild type TLR2 TMD”.
With “GNRASLILF S L S I S V S LFLMVMMTASHLGSLIN [TLR7 TMD]” the “Mean homotypic TMD interaction (ToxR)” value [5] was 0.4947.
For “TLR5*: TLR5 TMD chimera with nonfunctional ToxR* domain (negative phenotype) (GNRASFSLFIVCTVTLTLFLMTILTVTGSLIN; also: fused to non-functional ToxR* (S87H) and maltose binding protein, ends not given here)”, the “Mean GpA-TMD* heterotypic interaction (ToxR signal)” value [1] was 0.8934, the “Mean TLR1-TMD* heterotypic interaction (ToxR signal)” value [2] was 0.6805 and the “Mean homotypic TMD interaction (ToxR)” value [5] was 0.6087. For the same substance, the “Mean TLR2-TMD* heterotypic interaction (ToxR signal)” value [4] was 0.9233.
“TLR4*: TLR4 TMD chimera with nonfunctional ToxR* domain (negative phenotype) (GNRASTIIGVSVLVVSVVAVLVYKFYFGSLIN; also: fused to non-functional ToxR* (S87H) and maltose binding protein, ends not given here)” was tested, and the “Mean GpA-TMD* heterotypic interaction (ToxR signal)” value [1] was 1.1905, the “Mean TLR1-TMD* heterotypic interaction (ToxR signal)” value [2] was 0.8709 and the “Mean TLR6-TMD* heterotypic interaction (ToxR signal)” value [3] was 0.9610. For the same substance, the “Mean homotypic TMD interaction (ToxR)” value [5] was 0.5620 and the “Mean TLR2-TMD* heterotypic interaction (ToxR signal)” value [4] was 1.1386.
With “GNRASLIIF G VMA G VIGTILGSLIN [GpA TMD, reference compound]” the “Mean homotypic TMD interaction (ToxR)” value [5] was 1.0000.
For “GNRASWVLV G VLG G LLLLTILVLAMWGSLIN [Integrin*, Integrin αIIb TMD fused to nonfunctional ToxR* domain, unrelated receptor, reference compound]”, the “Mean GpA-TMD* heterotypic interaction (ToxR signal)” value [1] was 1.0189, the “Mean TLR1-TMD* heterotypic interaction (ToxR signal)” value [2] was 0.7583 and the “Mean TLR6-TMD* heterotypic interaction (ToxR signal)” value [3] was 0.6106. The “Mean TLR2-TMD* heterotypic interaction (ToxR signal)” value [4] was 0.7609.
In the case of “GNRASVTAVILFFFTFFITTMVMLAALAGSLIN [TLR8 TMD]”, the “Mean homotypic TMD interaction (ToxR)” value [5] is reported as 0.7486.
With “TLR10*: TLR10 TMD chimera with nonfunctional ToxR* domain (negative phenotype) (GNRASALLIVTIVVIMLVLGLAVAFCCLGSLIN; cysteine pairing not given here; also: fused to non-functional ToxR* (S87H) and maltose binding protein, ends not given here)” the “Mean GpA-TMD* heterotypic interaction (ToxR signal)” value [1] was 1.1244, the “Mean TLR1-TMD* heterotypic interaction (ToxR signal)” value [2] was 0.3608 and the “Mean TLR6-TMD* heterotypic interaction (ToxR signal)” value [3] was 0.3445. For the same substance, the “Mean homotypic TMD interaction (ToxR)” value [5] was 0.8259 and the “Mean TLR2-TMD* heterotypic interaction (ToxR signal)” value [4] was 0.3877.
